Assay results as given in patent US20260285850A1, “SUBSTITUTED OXAZOLIDINONES AND IMIDAZOLINONES AS HERBICIDES” (FMC CORPORATION, priority 2023, published 2026).

What was measured:
Type in all cases: in vivo
[1] = tested on: barnyardgrass (Echinochloa crusgalli); assay: Test B flooded paddy test, visual plant response rating 0-100; details: 250 g ai/ha, Flood, applied to paddy water, evaluated after 13 days
Method in brief: (§1)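 Visual evaluation after 13 days. Water-applied treatment, 3 cm flood depth held constant, plants at 2-leaf stage at treatment.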

[2] = tested on: ducksalad (Heteranthera limosa); assay: as above; details: 250 g ai/ha, Flood, applied to paddy water, evaluated after 13 days
Method in brief: as §1

rice (Oryza sativa) = assay: as above; details: 250 g ai/ha, Flood, applied to paddy water, evaluated after 13 days
Method in brief: as §1

[3] = tested on: sedge, umbrella (small-flower umbrella sedge, Cyperus difformis); assay: as above; details: 250 g ai/ha, Flood, applied to paddy water, evaluated after 13 days
Method in brief: as §1

kochia (Bassia scoparia) [4] = assay: Test A preemergence soil spray, visual injury rating 0-100; details: 10 days
Method in brief: (§2)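 Rating: visual, day 10, untreated plants as reference, 0 no effect to 100 full control. Plants were in loam-sand and were treated either preemergence via directed soil spray or postemergence at the one- to two-leaf stage.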

corn (Zea mays) [5] = assay: as above; details: 10 days
Method in brief: as §2

[6] = tested on: barnyardgrass (Echinochloa crus-galli); assay: as above; details: 10 days
Method in brief: as §2

[7] = tested on: ragweed (common ragweed, Ambrosia artemisiifolia); assay: as above; details: 10 days
Method in brief: as §2

soybean (Glycine max) [8] = assay: as above; details: 10 days
Method in brief: as §2

[9] = tested on: green foxtail (Setaria viridis); assay: as above; details: 10 days
Method in brief: as §2

[10] = tested on: oat, wild (wild oat, Avena fatua); assay: as above; details: 10 days
Method in brief: as §2

[11] = tested on: wheat (Triticum aestivum); assay: as above; details: 10 days
Method in brief: as §2

[12] = tested on: blackgrass (Alopecurus myosuroides); assay: as above; details: 10 days
Method in brief: as §2

[13] = tested on: ryegrass, Italian (italian ryegrass, Lolium multiflorum); assay: as above; details: 10 days
Method in brief: as §2

[14] = tested on: palmer (palmer amaranth, palmer pigweed, Amaranthus palmeri); assay: as above; details: 10 days
Method in brief: as §2

kochia (Bassia scoparia) [15] = assay: Test A postemergence application, visual injury rating 0-100
Method in brief: as §2

corn (Zea mays) [16] = assay: as above
Method in brief: as §2

[17] = tested on: barnyardgrass (Echinochloa crus-galli); assay: as above
Method in brief: as §2

[18] = tested on: ragweed (common ragweed, Ambrosia artemisiifolia); assay: as above
Method in brief: as §2

soybean (Glycine max) [19] = assay: as above
Method in brief: as §2

[20] = tested on: green foxtail (Setaria viridis); assay: as above
Method in brief: as §2

[21] = tested on: horseweed (Erigeron canadensis); assay: as above
Method in brief: as §2

[22] = tested on: galium (catchweed bedstraw, Galium aparine); assay: as above
Method in brief: as §2

[23] = tested on: oat, wild (wild oat, Avena fatua); assay: as above
Method in brief: as §2

[24] = tested on: wheat (Triticum aestivum); assay: as above
Method in brief: as §2

[25] = tested on: blackgrass (Alopecurus myosuroides); assay: as above
Method in brief: as §2

[26] = tested on: ryegrass, Italian (italian ryegrass, Lolium multiflorum); assay: as above
Method in brief: as §2

[27] = 62 g ai/ha, 0 = no effect, 100 = complete control
[28] = 62 g ai/ha, postemergence, 10 days, 0 = no effect, 100 = complete control
[29] = Postemergence, 16 g ai/ha, greenhouse 10 days, 0 no effect, 100 complete control

COC(=O)C1CC(NC(=O)C2(C(F)(F)F)CN(c3cc(F)cc(F)c3)C(=O)O2)C2CC12 (centres unmarked) [Compound 177]
10: Corn plant response rating (corn (Zea mays) [5]; 16 g ai/ha, 0 to 100 scale) | Corn plant response rating (0-100) (corn (Zea mays) [5]; [27]) | Horseweed plant response rating (0-100) [21, 28]
30: Kochia plant response rating (0 to 100 scale) (kochia (Bassia scoparia) [15]; [29]) | Corn plant response rating (0 to 100 scale) (corn (Zea mays) [16]; [29]) | Foxtail, Green plant response rating (0 to 100 scale) [20, 29]
100: Foxtail, Green plant response rating (0-100) [9, 27] | Wheat plant response rating (0-100) [11, 27] | Pigweed, Palmer plant response rating (0-100) [14, 27]
80: Plant response rating, Sedge, Umbrella (0 to 100 scale, 0 is no effect and 100 is complete control) [3] | Kochia plant response rating (0-100) (kochia (Bassia scoparia) [4]; [27]) | Ryegrass, Italian plant response rating ([13]; 16 g ai/ha, 0 to 100 scale) | Barnyardgrass plant response rating (0-100) [17, 28] | Galium plant response rating (0-100) [22, 28] | Wheat plant response rating (0 to 100 scale) [24, 29] | Blackgrass plant response rating (0 to 100 scale) [25, 29] | Ryegrass, Italian plant response rating (0-100) [26, 28]
90: Plant response rating, Barnyardgrass (0 to 100 scale, 0 is no effect and 100 is complete control) [1] | Plant response rating, Rice (0 to 100 scale, 0 is no effect and 100 is complete control) (rice (Oryza sativa)) | Barnyardgrass plant response rating (0-100) [6, 27] | Foxtail, Green plant response rating ([9]; 16 g ai/ha, 0 to 100 scale) | Oat, Wild plant response rating (0-100) [10, 27] | Blackgrass plant response rating (0-100) [12, 27] | Ryegrass, Italian plant response rating (0-100) [13, 27] | Pigweed, Palmer plant response rating ([14]; 16 g ai/ha, 0 to 100 scale) | Corn plant response rating (0-100) (corn (Zea mays) [16]; [28]) | Foxtail, Green plant response rating (0-100) [20, 28] | Galium plant response rating (0 to 100 scale) [22, 29] | Oat, Wild plant response rating (0-100) [23, 28] | Wheat plant response rating (0-100) [24, 28] | Blackgrass plant response rating (0-100) [25, 28]
70: Kochia plant response rating (0-100) (kochia (Bassia scoparia) [15]; [28]) | Barnyardgrass plant response rating (0 to 100 scale) [17, 29] | Oat, Wild plant response rating (0 to 100 scale) [23, 29] | Ryegrass, Italian plant response rating (0 to 100 scale) [26, 29]
60: Barnyardgrass plant response rating ([6]; 16 g ai/ha, 0 to 100 scale) | Blackgrass plant response rating ([12]; 16 g ai/ha, 0 to 100 scale)
40: Wheat plant response rating ([11]; 16 g ai/ha, 0 to 100 scale)
75: Plant response rating, Ducksalad (0 to 100 scale, 0 is no effect and 100 is complete control) [2]
0: Kochia plant response rating (kochia (Bassia scoparia) [4]; 16 g ai/ha, 0 to 100 scale) | Ragweed plant response rating ([7]; 16 g ai/ha, 0 to 100 scale) | Soybean plant response rating (soybean (Glycine max) [8]; 16 g ai/ha, 0 to 100 scale) | Soybean plant response rating (0-100) (soybean (Glycine max) [8]; [27]) | Oat, Wild plant response rating ([10]; 16 g ai/ha, 0 to 100 scale) | Ragweed plant response rating (0 to 100 scale) [18, 29] | Horseweed plant response rating (0 to 100 scale) [21, 29]
20: Ragweed plant response rating (0-100) [7, 27] | Ragweed plant response rating (0-100) [18, 28] | Soybean plant response rating (0 to 100 scale) (soybean (Glycine max) [19]; [29])
50: Soybean plant response rating (0-100) (soybean (Glycine max) [19]; [28])
